Tested on: p53alpha
Assay: Western blot of p53 isoforms in HCT 116 cells after doxorubicin with or without pulsed technology
Assay type: cell-based, Human
Conditions: 0.25 μM for 1 hour
Method: Human Colon Tumour (HCT) 116 cells (adherent cells) (ATCC, USA-ATCC® CCL-247™) were seeded at a density of 3×10^5 cells per well in two CELLSTAR®6-well plates (9.6 cm^2) in a final volume of 5 mL Dulbeccos Modified Eagle Medium (DMEM) (Thermo Fisher, USA)+10% Fetal Bovine Serum (FBS) (Hyclone, USA) 24 hours before treatment.
The naked agent used was Doxorubicin (0.25 μM) (Sigma Aldrich) in absolute ethanol and was given to the cells for a 1 hour treatment period and incubated at 37° C., at 5% CO^2.
After treatment the media was removed and fresh media was added to the cells. One of the plates was incubated directly at 37° C., at 5% CO^2 and the second plate was placed in a different incubator and pulsed using the pulsed technology of the present invention at 37° C., at 5% CO^2.
Protein extracts were collected at 3 hours, 6 hours, 9 hours, 16 hours or 24 hours of treatment for analysis by SDS-page.
1. For protein extraction the cells were washed twice with ice-cold PBS and then lysed in NP-40 extraction buffer (50 mM Tris ph 7.5; 10% glycerol; 0.1% “NP-40 Alternative” (Merck Millipore, USA); 100 mM NaCl; 0.2 mM EDTA) supplemented with 1× Complete™ Protease Inhibitor Cocktail (Roche, Switzerland). Extracts were sonicated (20 seconds, 20% amplitude) and protein concentration was determined using BCA™ Protein Assay Kit (ThermoFisher Scientific USA) according to the manufacturers recommendations.
1. Protein extracts (15/20 μg depending on the experiment) were supplemented with 0.1M dithiothreitol (DTT) and 1×LDS buffer (Invitrogen, USA) and were heated at 95° C. for 10 min before loading on NuPAGE 10% Bis-Tris polyacrylamide gels (Invitrogen, USA).
2. Protein samples were separated by electrophoresis (100V) using 1×MOPS Running Buffer. Transfer of proteins was performed at 12V overnight onto a nitrocellulose membrane (Protran 0.1 μm from GE Healthcare, USA) in 1× Transfer Buffer supplemented with 20% methanol. 1× Transfer Buffer is prepared from 10× Wet blot solution containing 144 g of glycine and 30 g Tris-Base in a final volume of 1 L milli-Q water.
3. Membranes were blocked for 30 min in 5% BSA diluted in PBS—0.1% Tween20 before being incubated overnight with a primary antibody (Mouse monoclonal antibody D01). After a wash of 15 min. in PBS-Tween20, membranes were incubated for 1 h with a corresponding secondary antibody (HRP conjugated Donkey anti Mouse). […]
At the end of the incubation membranes were washed twice with PBS-Tween20 for 15 min followed by a final 10 min. wash with PBS. The chemiluminescence signal was detected on Hyperfilm™ ECL (Cytiva, USA) using the Amersham ECL Western Blotting Detection System (Cytiva, USA).

COc1cccc2c1C(=O)c1c(O)c3c(c(O)c1C2=O)C[C@@](O)(C(=O)CO)C[C@@H]3O[C@H]1C[C@H](N)[C@H](O)[C@H](C)O1 [doxorubicin, Doxorubicin]
H2AX expression (ionising radiation marker, Western Blot) (pulsed technology vs control arms, FIG. 13): no observed change
p53alpha expression (Western Blot) (pulsed technology vs control, after 16 hours, FIG. 14): significant overproduction
p53alpha expression (Western Blot) (then pulsed technology vs control, 3 to 24 hours, FIG. 13): upregulated
expression of other p53 isoforms d133p53alpha, d133p53beta and d160p53beta (Western Blot) (then pulsed technology vs control, FIG. 13): more upregulated
